Measured values taken from a compilation of properties of binary mixtures (doi:10.1021/jp308139r).

Assay: xn = mol fraction of the nth substance listed
Details: 101 kPa

C[S+](C)C.O=S(=O)([N-]S(=O)(=O)C(F)(F)F)C(F)(F)F + CC1COC(=O)O1
Details	electrical conductivity [S/m]
265.55 K, x2 = 0.76	0.468
276.95 K, x2 = 0.76	0.708
294.65 K, x2 = 0.76	1.18
298.15 K, x1 = 0.0001	0.009
298.15 K, x1 = 0.0003	0.023
298.15 K, x1 = 0.0053	0.177
298.15 K, x2 = 0.5156	1.07
298.15 K, x2 = 0.565	1.21
298.15 K, x2 = 0.6897	1.37
298.15 K, x2 = 0.7404	1.39
298.15 K, x2 = 0.8098	1.34
298.15 K, x2 = 0.8571	1.25
298.15 K, x2 = 0.9218	0.964
298.15 K, x2 = 0.9792	0.39
303.15 K, x2 = 0.76	1.44
313.15 K, x2 = 0.76	1.8
323.15 K, x2 = 0.76	2.16
343.15 K, x2 = 0.76	2.94
353.15 K, x2 = 0.76	3.34

C[S+](C)C.O=S(=O)([N-]S(=O)(=O)C(F)(F)F)C(F)(F)F + O=C1CCCO1
Details	electrical conductivity [S/m]
264.75 K, x2 = 0.8	0.887
273.15 K, x2 = 0.8	1.11
283.85 K, x2 = 0.8	1.43
293.15 K, x2 = 0.8	1.75
298.15 K, x1 = 0.0001	0.011
298.15 K, x1 = 0.0002	0.015
298.15 K, x1 = 0.0003	0.025
298.15 K, x1 = 0.0005	0.038
298.15 K, x1 = 0.0008	0.052
298.15 K, x1 = 0.0047	0.226
298.15 K, x1 = 0.0187	0.583
298.15 K, x2 = 0.5398	1.35
298.15 K, x2 = 0.5798	1.49
298.15 K, x2 = 0.66	1.74
298.15 K, x2 = 0.72	1.9
298.15 K, x2 = 0.8	2.01
298.15 K, x2 = 0.8695	1.89
303.15 K, x2 = 0.8	2.11
313.15 K, x2 = 0.8	2.5
323.15 K, x2 = 0.8	2.9
333.15 K, x2 = 0.8	3.32
343.15 K, x2 = 0.8	3.74
353.15 K, x2 = 0.8	4.17

C[NH+](C)C.O=S(=O)([N-]S(=O)(=O)C(F)(F)F)C(F)(F)F + O=C1CCCO1
Details	electrical conductivity [S/m]	viscosity [mPa·s]
263.15 K, x2 = 0.74	0.948	–
273.15 K, x2 = 0.74	1.19	–
283.15 K, x2 = 0.74	1.61	–
293.15 K, x2 = 0.74	2.01	–
298.15 K, x1 = 0.0001	0.005	–
298.15 K, x1 = 0.0003	0.027	–
298.15 K, x1 = 0.0046	0.214	–
298.15 K, x1 = 0.0188	0.613	–
298.15 K, x2 = 0.5778	2.09	–
298.15 K, x2 = 0.5976	–	6.89
298.15 K, x2 = 0.639	2.26	–
298.15 K, x2 = 0.672	–	5.66
298.15 K, x2 = 0.6802	2.35	–
298.15 K, x2 = 0.7426	2.44	–
298.15 K, x2 = 0.7428	–	4.51
298.15 K, x2 = 0.8047	2.36	–
298.15 K, x2 = 0.8088	–	3.5
298.15 K, x2 = 0.8692	2.06	–
298.15 K, x2 = 0.8803	–	2.64
298.15 K, x2 = 0.9328	1.44	–
303.15 K, x2 = 0.5976	–	5.87
303.15 K, x2 = 0.672	–	4.85
303.15 K, x2 = 0.74	2.49	–
303.15 K, x2 = 0.7428	–	3.91
313.15 K, x2 = 0.5976	–	4.35
313.15 K, x2 = 0.74	2.97	–
313.15 K, x2 = 0.7428	–	3.01
313.15 K, x2 = 0.8088	–	2.35
323.15 K, x2 = 0.5976	–	3.39
323.15 K, x2 = 0.672	–	2.84
323.15 K, x2 = 0.74	3.47	–
323.15 K, x2 = 0.7428	–	2.29
323.15 K, x2 = 0.8088	–	1.91
323.15 K, x2 = 0.8803	–	1.49
333.15 K, x2 = 0.5976	–	2.74
333.15 K, x2 = 0.672	–	2.34
333.15 K, x2 = 0.8088	–	1.48
333.15 K, x2 = 0.8803	–	1.2
335.15 K, x2 = 0.74	4.11	–
343.15 K, x2 = 0.5976	–	2.22
343.15 K, x2 = 0.672	–	1.9
343.15 K, x2 = 0.7428	–	1.45
343.15 K, x2 = 0.8088	–	1.17
343.45 K, x2 = 0.74	4.56	–
353.15 K, x2 = 0.74	5.09	–

C[NH+](C)C.O=S(=O)([N-]S(=O)(=O)C(F)(F)F)C(F)(F)F + CC#N
Details	electrical conductivity [S/m]
265.55 K, x2 = 0.86	4.31
273.15 K, x2 = 0.86	4.81
283.15 K, x2 = 0.86	5.49
293.15 K, x2 = 0.86	6.17
298.15 K, x1 = 0.0001	0.022
298.15 K, x1 = 0.0004	0.273
298.15 K, x1 = 0.0008	0.438
298.15 K, x1 = 0.0021	0.755
298.15 K, x1 = 0.0083	1.81
298.15 K, x2 = 0.5587	3.69
298.15 K, x2 = 0.6	4.08
298.15 K, x2 = 0.72	5.54
298.15 K, x2 = 0.78	6.28
298.15 K, x2 = 0.84	6.76
298.15 K, x2 = 0.8901	6.73
298.15 K, x2 = 0.938	5.86
298.15 K, x2 = 0.9677	4.21
313.15 K, x2 = 0.86	7.54
323.15 K, x2 = 0.86	8.22
333.15 K, x2 = 0.86	8.88
343.15 K, x2 = 0.86	9.57
353.15 K, x2 = 0.86	10.2

C[S+](C)C.O=S(=O)([N-]S(=O)(=O)C(F)(F)F)C(F)(F)F + CC#N
Details	electrical conductivity [S/m]
283.15 K, x2 = 0.87	4.66
293.45 K, x2 = 0.87	5.28
298.15 K, x1 = 0.0001	0.043
298.15 K, x1 = 0.0002	0.103
298.15 K, x1 = 0.0003	0.148
298.15 K, x1 = 0.0033	0.839
298.15 K, x1 = 0.0129	2.17
298.15 K, x2 = 0.4883	2
298.15 K, x2 = 0.56	2.74
298.15 K, x2 = 0.64	3.56
298.15 K, x2 = 0.72	4.44
298.15 K, x2 = 0.8	5.35
298.15 K, x2 = 0.86	5.74
298.15 K, x2 = 0.9497	4.59
303.25 K, x2 = 0.87	5.88
313.15 K, x2 = 0.87	6.45
333.15 K, x2 = 0.87	7.48
343.15 K, x2 = 0.87	8.05
353.15 K, x2 = 0.87	8.67

O=C1CCCO1 + C[NH+](C)C.O=S(=O)([N-]S(=O)(=O)C(F)(F)F)C(F)(F)F
x1 = 1
Details	viscosity [mPa·s]
298.15 K	1.74
303.15 K	1.61
313.15 K	1.39
323.15 K	1.22
343.15 K	0.96

C[NH+](C)C.O=S(=O)([N-]S(=O)(=O)C(F)(F)F)C(F)(F)F + CC1COC(=O)O1
Details	electrical conductivity [S/m]
264.45 K, x2 = 0.701	0.519
273.15 K, x2 = 0.701	0.687
283.15 K, x2 = 0.701	1
293.15 K, x2 = 0.701	1.34
298.15 K, x1 = 0.0002	0.011
298.15 K, x1 = 0.0005	0.022
298.15 K, x1 = 0.002	0.066
298.15 K, x1 = 0.0055	0.155
298.15 K, x2 = 0.5091	1.41
298.15 K, x2 = 0.5632	1.5
298.15 K, x2 = 0.6802	1.66
298.15 K, x2 = 0.843	1.43
303.15 K, x2 = 0.701	1.74
313.15 K, x2 = 0.701	2.16
323.15 K, x2 = 0.701	2.61
333.15 K, x2 = 0.701	3.09
343.15 K, x2 = 0.701	3.59
353.15 K, x2 = 0.701	4.1
